Laboratory results: patent US10016383B2, “Inhibitors of metallo-β-lactamase-enzymes” (McMaster University, priority 2013, dated 2018)
Entries after “also recorded” stand apart in the source; their conditions may differ.

Tests used:
Pseudomonas spp. = assay: Clinical isolate screening with meropenem; type: cell-based, Pseudomonas aeruginosa
Method: (§1) Various concentrations of AM-A were chosen in combination with 2 mg/L of meropenem which is the EUCAST breakpoint for resistance^28. Synergistic properties of the two compounds were examined in a micro-titre tray using BHI as the growth medium (Oxford Science Park, England) and an inoculum of 0.5 MacFarland. All plates contained the control strains Escherichia coli ATCC 25922 and Pseudomonas aeruginosa ATCC 27853. Overall, 226 non-clonal clinical isolates (Enterobacteriaceae, P. aeruginosa and Acinetobacter spp.) were challenged containing one of the following MBLs: SPM-1 (n=17), AIM-1 (n=8), NDM-1 (n=67), VIM-type (n=114) or IMP-type (n=20). […] Plates were incubated at 37° C. and read after 18 hrs.

VIM positive isolates = assay: Clinical isolate screening with meropenem; type: cell-based, Enterobacteriaceae, Acinetobacter spp. and Pseudomonas spp.; conditions: AM-A 8 μg/ml, meropenem 2 μg/ml
Method: as §1

NDM positives isolates = assay: Clinical isolate screening with meropenem; type: cell-based, Enterobacteriaceae, Acinetobacter spp. and Pseudomonas spp.; conditions: AM-A 8 μg/ml, meropenem 2 μg/ml
Method: as §1

[1] = system: SPM-1-expressing isolates; assay: Clinical isolate screening with meropenem; type: cell-based, Enterobacteriaceae, Acinetobacter spp. and Pseudomonas spp.; conditions: meropenem 2 μg/ml, AM-A 8 μg/ml
Method: as §1

AIM-expressing isolates = assay: Clinical isolate screening with meropenem; type: cell-based, Enterobacteriaceae, Acinetobacter spp. and Pseudomonas spp.; conditions: meropenem 2 μg/ml, AM-A 8 μg/ml
Method: as §1

IMP-expressing isolates = assay: Clinical isolate screening with meropenem; type: cell-based, Enterobacteriaceae, Acinetobacter spp. and Pseudomonas spp.; conditions: meropenem 2 μg/ml, AM-A 8 μg/ml
Method: as §1

IMP-7 = assay: IC50 enzyme inhibition assay, nitrocefin reporter substrate; type: biochemical
Method: (§2) Enzyme (NDM-1, 5 nM; VIM-2, 500 pM; CTX-M-15, 500 pM; KPC-2, 5 nM; OXA-48, 1 nM; TEM-1, 100 pM; ACE, 50 nM) was mixed with 30 μM nitrocefin (100 μM nitrocefin for TEM-1; 250 µM furanacryloyl-L-phenylalanylglycylglycine [FAPGG] for ACE^24) after a 5-10 minute preincubation with AM-A. Metallo-enzymes were supplemented with 10 μM ZnSO4. Assays were read in 96-well microplate format at 490 nm using a Spectramax reader (Molecular Devices) at 30-37° C.
(§3) E. coli strain BW25113 was modified by deletion of the bamB and tolC genes so as to increase permeability to and reduce efflux of small molecules. This strain was then further modified by the single-copy chromosomal insertion of the blaNDM-1 gene under control of the pLac promoter. Microbial natural product extracts were screened against this strain in the presence of sublethal ¼ MIC meropenem. AM-A was purified from a hit extract and its structure elucidated by NMR, mass spectrometry and polarimetry. IC50 values for AM-A were determined using nitrocefin (for MBLs and Ser BLs) and furanacryloyl-L-phenylalanylglycylglycine (for ACE)^21 as reporter substrates against the following purified enzymes: MBLs IMP-7, VIM-2, and NDM-1; SBLs CTX-M-15, KPC-2, OXA-48, and TEM-1; as well as ACE from rabbit lung. IC50, reversibility, Zn^2+ restoration, and inactivation enzyme assays were performed in 50 mM HEPES pH 7.5 and measured using a SpectraMax reader (Molecular Devices). ICP-MS experiments were conducted using purified NDM-1 at 5 mg/mL and varying concentrations of AM-A with subsequent dilution and transfer by nebulization into a NexION 3000 ICP mass spectrometer (Perkin Elmer). FIC values were determined using standard methods^27. Various concentrations of AM-A were tested in combination with 2 mg/L meropenem against 200+MBL-expressing clinical isolates including Pseudomonas spp., Acinetobacter spp., and Enterobacteriaceae. A dose of 2×10^6 forming units (cfu) of Klebsiella pneumoniae N11-2218 was used for all organ bacterial load experiments and a dose of 5×10^7cfu for all survival experiments. For all experiments, mice were treated with compound 30 minutes post infection.

VIM-2 = target: T1, VIM-2 (Escherichia coli, UniProt Q5U7L7); assay: as above; type: biochemical
T1 construct: All β-lactamase overexpression constructs were generated without the leader peptide in a pET-28b plasmid containing a N-terminal His Tag; His tag (N); made in house; host or cells: E. coli BL21(DE3)
Method: as §2, §3

OXA-48 = target: T2, OXA-48 (Klebsiella pneumoniae, UniProt Q6XEC0); assay: as above; type: biochemical
T2 construct: All β-lactamase overexpression constructs were generated without the leader peptide in a pET-28b plasmid containing a N-terminal His Tag; His tag (N); made in house; host or cells: E. coli BL21(DE3)
T2 sequence (Q6XEC0 23-265 limits assumed): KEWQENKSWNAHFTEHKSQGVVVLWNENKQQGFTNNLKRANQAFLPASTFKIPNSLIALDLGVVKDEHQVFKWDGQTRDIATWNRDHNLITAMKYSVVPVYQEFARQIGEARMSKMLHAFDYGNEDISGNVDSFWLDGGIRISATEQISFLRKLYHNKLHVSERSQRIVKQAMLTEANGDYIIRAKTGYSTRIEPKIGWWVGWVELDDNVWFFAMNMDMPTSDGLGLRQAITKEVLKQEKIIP
Method: as §2, §3

KPC-2 = target: T3, KPC-2 (Klebsiella pneumoniae, UniProt Q9F663); assay: as above; type: biochemical
T3 construct: All β-lactamase overexpression constructs were generated without the leader peptide in a pET-28b plasmid containing a N-terminal His Tag; His tag (N); made in house
T3 sequence (Q9F663 25-293 limits assumed): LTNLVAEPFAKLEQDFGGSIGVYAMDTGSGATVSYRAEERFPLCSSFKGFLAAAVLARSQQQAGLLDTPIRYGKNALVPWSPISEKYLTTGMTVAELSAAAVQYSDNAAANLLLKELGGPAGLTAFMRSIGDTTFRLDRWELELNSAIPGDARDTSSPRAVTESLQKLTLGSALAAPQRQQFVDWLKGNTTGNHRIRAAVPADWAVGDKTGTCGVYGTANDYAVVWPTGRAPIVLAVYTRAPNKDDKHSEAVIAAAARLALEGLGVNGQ
Method: as §2, §3

TEM-1 = target: T4, TEM-1 (Escherichia coli, UniProt P62593); assay: as above; type: biochemical
T4 construct: All β-lactamase overexpression constructs were generated without the leader peptide in a pET-28b plasmid containing a N-terminal His Tag; His tag (N); made in house; host or cells: E. coli BL21(DE3)
T4 sequence (P62593 24-286 limits assumed): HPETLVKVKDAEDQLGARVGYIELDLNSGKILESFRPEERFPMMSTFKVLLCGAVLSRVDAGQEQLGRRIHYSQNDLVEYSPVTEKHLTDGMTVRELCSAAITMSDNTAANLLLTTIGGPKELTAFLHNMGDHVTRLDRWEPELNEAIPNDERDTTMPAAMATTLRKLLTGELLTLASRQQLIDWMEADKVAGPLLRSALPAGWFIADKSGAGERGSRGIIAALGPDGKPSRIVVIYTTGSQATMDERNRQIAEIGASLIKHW
Method: as §2, §3

CTX-M-15 = target: T5, CTX-M-15 (Escherichia coli, UniProt Q9EXV5); assay: as above; type: biochemical
T5 construct: All β-lactamase overexpression constructs were generated without the leader peptide in a pET-28b plasmid containing a N-terminal His Tag; His tag (N); made in house; host or cells: E. coli BL21(DE3)
T5 sequence (Q9EXV5 entry or part of it): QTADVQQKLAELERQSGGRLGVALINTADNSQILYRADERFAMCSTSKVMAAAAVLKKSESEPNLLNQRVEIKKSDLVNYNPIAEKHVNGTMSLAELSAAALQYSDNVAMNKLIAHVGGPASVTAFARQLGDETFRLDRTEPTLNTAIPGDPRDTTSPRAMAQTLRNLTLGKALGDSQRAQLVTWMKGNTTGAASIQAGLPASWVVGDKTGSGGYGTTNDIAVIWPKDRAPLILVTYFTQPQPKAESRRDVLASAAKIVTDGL
Method: as §2, §3

NDM-1 = NDM-1 (Klebsiella pneumoniae, UniProt C7C422); assay: as above; type: biochemical; parameters: All β-lactamase overexpression constructs were generated without the leader peptide in a pET-28b plasmid containing a N-terminal His Tag; His tag (N, cleaved yes); SUMO (implied by the use of SUMO protease) (N, cleaved yes); made in house; host or cells: E. coli BL21(DE3)
Sequence of NDM-1 (C7C422 29-270 limits assumed): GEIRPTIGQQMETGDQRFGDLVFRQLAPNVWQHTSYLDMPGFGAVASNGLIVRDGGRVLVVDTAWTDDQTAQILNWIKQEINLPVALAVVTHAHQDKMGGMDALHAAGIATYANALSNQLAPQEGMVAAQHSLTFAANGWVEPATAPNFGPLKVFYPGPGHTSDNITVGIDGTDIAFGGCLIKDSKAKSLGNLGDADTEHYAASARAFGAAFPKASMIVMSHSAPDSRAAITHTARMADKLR
Method: as §2
E. coli strain BW25113 was modified by deletion of the bamB and tolC genes so as to increase permeability to and reduce efflux of small molecules. This strain was then further modified by the single-copy chromosomal insertion of the blaNDM-1 gene under control of the pLac promoter. Microbial natural product extracts were screened against this strain in the presence of sublethal ¼ MIC meropenem. AM-A was purified from a hit extract and its structure elucidated by NMR, mass spectrometry and polarimetry. IC50 values for AM-A were determined using nitrocefin (for MBLs and Ser BLs) and furanacryloyl-L-phenylalanylglycylglycine (for ACE)^21 as reporter substrates against the following purified enzymes: MBLs IMP-7, VIM-2, and NDM-1; SBLs CTX-M-15, KPC-2, OXA-48, and TEM-1; as well as ACE from rabbit lung. […] FIC values were determined using standard methods^27. […]

## N[C@H](CN[C@H](CN[C@@H](CC(=O)O)C(=O)O)C(=O)O)C(=O)O [AM-A, aspergillomarasmine A]
Pseudomonas spp.
  activity in Pseudomonas spp. (potentiation of meropenem): active
VIM positive isolates
  isolates with meropenem sensitivity restored: 90%
  susceptibility to meropenem/AM-A combination: highly susceptible
NDM positives isolates
  isolates with meropenem sensitivity restored: 88%
  susceptibility to meropenem/AM-A combination: highly susceptible
[1]
  potentiation of meropenem / susceptibility to combination: very little potentiation; also recorded: remained resistant
AIM-expressing isolates
  potentiation of meropenem / susceptibility to combination: very little potentiation; also recorded: remained resistant
IMP-expressing isolates
  potentiation of meropenem / susceptibility to combination: very little potentiation; also recorded: remained resistant
IMP-7
  activity against IMP-7: weaker activity; also recorded: less potent inactivation
VIM-2
  IC50: 9.6 ± 2.4 µM
  in vitro inhibition of VIM-2: potent in vitro dose-dependent inhibition
OXA-48
  effect on activity of OXA-48: no effect; also recorded: unaffected
KPC-2
  effect on KPC-2: no effect
TEM-1
  effect on TEM-1: no effect
CTX-M-15
  effect on CTX-M-15: no effect
NDM-1
  in vitro inhibition of NDM-1: potent in vitro dose-dependent inhibition
